Experiments:
Type in all cases: cell-based
BTK(C481S)-GFP = target: T1, BTK(C481S)-GFP (Homo sapiens, UniProt Q06187+Q96SW2, C481S); assay: BTK(C481S)-GFP protein abundance flow cytometry assay in TMD8 cells; details: for BTK (C481S) Amax %: % protein remaining at concentration of maximum degradation; for DC50: concentration at which 50% maximal degradation was observed
T1 construct: with a mutagenesis reaction on pENTR221-BTK (STOP-Leu); CHYSEL (cis-acting hydrolase element, 2A) remnant after GFP; mCherry is split off as a separate protein (C); expressed in transfected cells; host or cells: TMD8 cells, lentiviral transduction with pLenti6-BTK(C481S)-GFP-CHYSEL-mCherry
T1 sequence (Q06187 whole entry C481S): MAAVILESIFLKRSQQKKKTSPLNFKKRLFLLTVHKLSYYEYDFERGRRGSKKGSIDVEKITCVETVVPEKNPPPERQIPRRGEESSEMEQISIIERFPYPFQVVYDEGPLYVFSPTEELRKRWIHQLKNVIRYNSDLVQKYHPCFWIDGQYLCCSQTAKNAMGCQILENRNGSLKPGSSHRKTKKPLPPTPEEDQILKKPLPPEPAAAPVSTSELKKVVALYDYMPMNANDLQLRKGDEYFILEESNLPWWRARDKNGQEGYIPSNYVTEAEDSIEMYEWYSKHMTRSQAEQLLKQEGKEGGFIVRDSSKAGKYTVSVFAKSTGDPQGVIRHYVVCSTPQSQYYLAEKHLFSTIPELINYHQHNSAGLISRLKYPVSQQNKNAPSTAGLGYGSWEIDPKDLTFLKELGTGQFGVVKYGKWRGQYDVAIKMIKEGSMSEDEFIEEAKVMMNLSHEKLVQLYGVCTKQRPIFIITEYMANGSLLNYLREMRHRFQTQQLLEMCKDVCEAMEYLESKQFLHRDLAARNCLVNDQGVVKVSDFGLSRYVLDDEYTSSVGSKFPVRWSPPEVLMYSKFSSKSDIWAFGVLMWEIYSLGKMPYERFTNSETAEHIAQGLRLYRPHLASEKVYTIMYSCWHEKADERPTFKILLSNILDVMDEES
T1 sequence (Q96SW2 whole entry): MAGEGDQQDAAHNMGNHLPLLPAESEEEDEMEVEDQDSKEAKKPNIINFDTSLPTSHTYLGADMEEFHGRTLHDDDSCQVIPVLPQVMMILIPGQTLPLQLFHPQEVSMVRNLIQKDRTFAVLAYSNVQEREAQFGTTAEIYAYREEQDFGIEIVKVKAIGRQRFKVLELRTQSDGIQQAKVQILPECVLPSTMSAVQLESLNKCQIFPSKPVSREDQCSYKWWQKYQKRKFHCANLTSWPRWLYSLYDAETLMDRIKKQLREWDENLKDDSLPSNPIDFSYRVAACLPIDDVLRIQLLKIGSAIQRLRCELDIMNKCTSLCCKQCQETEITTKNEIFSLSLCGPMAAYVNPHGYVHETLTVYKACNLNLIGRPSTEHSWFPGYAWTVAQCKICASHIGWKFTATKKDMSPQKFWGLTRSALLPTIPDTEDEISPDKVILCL
T1 sequence (Q16531 whole entry partner): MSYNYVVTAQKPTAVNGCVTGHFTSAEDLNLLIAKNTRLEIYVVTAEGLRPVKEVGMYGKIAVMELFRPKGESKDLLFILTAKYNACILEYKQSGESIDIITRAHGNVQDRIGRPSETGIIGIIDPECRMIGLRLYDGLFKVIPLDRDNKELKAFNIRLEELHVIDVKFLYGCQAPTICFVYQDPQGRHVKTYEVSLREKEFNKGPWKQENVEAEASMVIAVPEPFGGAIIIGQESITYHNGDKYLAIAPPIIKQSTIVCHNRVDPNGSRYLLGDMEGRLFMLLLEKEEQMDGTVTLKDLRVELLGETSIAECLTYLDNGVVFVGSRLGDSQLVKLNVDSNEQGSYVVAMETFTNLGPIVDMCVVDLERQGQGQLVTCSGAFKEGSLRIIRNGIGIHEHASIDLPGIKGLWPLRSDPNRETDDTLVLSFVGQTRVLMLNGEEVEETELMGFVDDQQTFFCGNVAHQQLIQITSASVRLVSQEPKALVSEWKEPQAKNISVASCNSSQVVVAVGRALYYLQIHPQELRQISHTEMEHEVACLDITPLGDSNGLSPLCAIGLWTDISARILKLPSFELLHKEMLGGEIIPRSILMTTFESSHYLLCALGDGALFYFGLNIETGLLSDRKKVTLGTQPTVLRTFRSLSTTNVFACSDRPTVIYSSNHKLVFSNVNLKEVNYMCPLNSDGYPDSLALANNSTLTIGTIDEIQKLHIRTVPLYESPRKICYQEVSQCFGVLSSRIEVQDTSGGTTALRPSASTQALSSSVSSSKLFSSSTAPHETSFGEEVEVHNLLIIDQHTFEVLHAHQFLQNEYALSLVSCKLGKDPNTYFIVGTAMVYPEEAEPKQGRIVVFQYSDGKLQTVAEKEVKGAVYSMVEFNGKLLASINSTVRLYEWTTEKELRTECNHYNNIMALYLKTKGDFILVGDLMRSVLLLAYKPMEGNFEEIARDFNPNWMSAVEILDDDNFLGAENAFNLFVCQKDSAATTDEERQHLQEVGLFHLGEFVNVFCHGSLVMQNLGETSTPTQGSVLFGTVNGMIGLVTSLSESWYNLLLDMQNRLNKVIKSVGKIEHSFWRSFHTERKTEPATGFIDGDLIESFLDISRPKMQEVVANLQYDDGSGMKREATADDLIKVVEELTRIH
Description: Compounds of the invention were tested in the following cellular assays. The terms in Table 1 are defined as follows: DC50 refers to the concentration at which 50% maximal degradation was observed; deg Amax is the extent of degradation and the value refers to the % protein remaining at the concentration at which maximum degradation is seen; Prol GI50 refers to the proliferation data and defines the concentration at which 50% growth inhibition was observed compared to the vehicle treated control at the end of the incubation time. TMD8 cells are BTK dependent and OCI-LY3 cells are BTK independent.
BTK(C481S)-GFP Protein Abundance Flow Cytometry Assay in TMD8 Cells:
Degradation of BTK(C481S) was measured in TMD8 cells expressing BTK(C481S)-GFP and mCherry from a stably integrated second generation bicistronic BTK(C481S)-GFP-CHYSEL-mCherry construct. Reduction of the GFP signal measured by flow cytometry served as readout for BTK(C481S) degradation after degrader treatment.

BTK-GFP = target: T2, BTK-GFP (Homo sapiens, UniProt Q06187+Q96SW2); assay: BTK-GFP protein abundance flow cytometry assay in HEK293A cells; details: 24 h; for BTK deg Amax %: % protein remaining at concentration of maximum degradation; for DC50: concentration at which 50% maximal degradation was observed
T2 construct: the BTK open reading frame (ORF) was first shuttled from a pcDNA-DEST40-BTK vector (Invitrogen library ID INV_20090504v1); expressed in transfected cells; host or cells: HEK293A cells (Invitrogen R70507), lentiviral transduction with pLenti6-BTK-GFP-Ires-RFP, blasticidin-selected
T2 sequence (Q06187 whole entry): as the sequence (Q06187 whole entry C481S) above, with S481C counted along it
T2 sequence (Q96SW2 whole entry): as the sequence (Q96SW2 whole entry) above
T2 sequence (Q16531 whole entry partner): as the sequence (Q16531 whole entry partner) above
In short: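 HEK293A cells stably expressing BTK-GFP-iresRFP treated 24 h at 37° C with 10-point 1:3 dilutions from 10 μM (0.1% DMSO), in duplicate. Median GFP of 5,000 single cells by flow cytometry, normalized to GFP-negative iresRFP cells (0%) and DMSO (100%); DC50 from concentration-response curves.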

IKZF3-GFP = target: T3, IKZF3-GFP (Homo sapiens, UniProt Q9UKT9); assay: IKZF3-GFP protein abundance flow cytometry assay in HEK293A cells; details: 24 h, Table 1; for IKZF3 deg Amax %: % protein remaining at maximum degradation
T3 construct: gateway cloning of IKZF3 from a pENTR221-IKZF3(STOP-Leu) construct into the previously described pLenti6-DEST-GFP-Ires-RFP vector; expressed in transfected cells; host or cells: HEK293A cells (Invitrogen R70507), lentiviral transduction with pLenti6-IKZF3-GFP-Ires-RFP, blasticidin-selected
T3 sequence (Q96SW2 whole entry partner): as the sequence (Q96SW2 whole entry) above
T3 sequence (Q16531 whole entry partner): as the sequence (Q16531 whole entry partner) above
T3 sequence (Q9UKT9 whole entry): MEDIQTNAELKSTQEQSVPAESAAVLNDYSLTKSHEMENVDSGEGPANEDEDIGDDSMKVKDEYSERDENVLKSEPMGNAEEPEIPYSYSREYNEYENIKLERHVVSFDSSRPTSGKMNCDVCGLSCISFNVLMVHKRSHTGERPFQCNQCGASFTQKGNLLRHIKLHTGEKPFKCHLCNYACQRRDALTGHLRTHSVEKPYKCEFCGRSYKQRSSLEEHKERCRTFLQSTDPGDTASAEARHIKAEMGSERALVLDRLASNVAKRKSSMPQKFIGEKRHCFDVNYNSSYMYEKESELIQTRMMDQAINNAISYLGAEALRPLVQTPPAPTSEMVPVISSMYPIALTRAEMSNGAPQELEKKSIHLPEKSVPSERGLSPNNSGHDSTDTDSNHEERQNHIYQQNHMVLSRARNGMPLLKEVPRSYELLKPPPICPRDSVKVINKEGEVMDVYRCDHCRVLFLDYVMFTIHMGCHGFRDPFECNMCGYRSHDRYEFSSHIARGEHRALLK
Description: Compounds of the invention were tested in the following cellular assays. […] TMD8 cells are BTK dependent and OCI-LY3 cells are BTK independent.
BTK-GFP and IKZF3-GFP Protein Abundance Flow Cytometry Assay in HEK293A Cells:
Degradation of BTK or IKZF3 was measured in HEK293A cells (Invitrogen R70507) expressing either BTK-GFP and RFP or IKZF3-GFP and RFP from a stably integrated bicistronic BTK-GFP-iresRFP or IKZF3-GFP-iresRFP construct, respectively. Reduction of the GFP signal measured by flow cytometry served as readout for BTK or IKZF3 degradation after degrader treatment.
Stable HEK293A-BTK-GFP-iresRFP cells were maintained in complete growth medium (DMEM high Glucose+10% FCS+1% L-Glutamine+1% NEAA+1% NaPyr.) with passaging performed twice per week. On Day 0, HEK293A-BTK-GFP-iresRFP or HEK293A-IKZF3-GFP-iresRFP and HEK293A-iresRFP cells were seeded at 10,000 cells/well in a 96-well microtiter plate in 260 μl complete medium. On Day 1, cells were treated in duplicate with 10-point 1:3 dilution series of compound using the HP D300 Digital Dispenser (Tecan). DMSO concentrations were normalized across the plate to 0.1%. On Day 2, after 24 h of incubation at 37° C., treatment media was discarded, cells rinsed with 100 ul/well PBS and then detached using 40 ul trypsin/well for 5 min. Trypsin was neutralized with 100 ul/well PBS+20% FCS). Flow cytometry was performed on the samples using the BD FACS CANTO II (Becton Dickinson). Cell identification was then performed using forward (FSC) vs. side scatter (SSC) plots. Single cell discrimination is performed using SSC-Width (SSC-W) vs. SSC-Height (SSC-H) plots. Median GFP values for 5,000 single cells are used to determine BTK levels. Median GFP values from HEK293A-iresRFP are used as a background signal and thus defining 0% BTK signal. Median GFP values from DMSO treated HEK293A-BTK-GFP-iresRFP or HEK293A-IKZF3-GFP-iresRFP are used to define 100% BTK signal for subsequent DC50 curves (concentration at 50% BTK degradation). GFP and RFP are read in the channels called FITC and PE, respectively.
Concentration response curves plotting relative reduction of the GFP signal (measured by flow cytometry) versus 10 compound concentrations (starting concentration 10 μM, 3 fold dilution steps) of the compounds allowed generation of DC50 values.
Data is shown in Table 2, in which, DC50 refers to the concentration at which 50% maximal degradation was observed; deg Amax is the extent of degradation and the value refers to the % protein remaining at the concentration at which maximum degradation is seen.

SMILES	BTK (C481S) Amax % (BTK(C481S)-GFP) [%]	DC50 (BTK(C481S)-GFP) [nM]	BTK deg Amax % (BTK-GFP) [%]	DC50 (BTK-GFP) [nM]	IKZF3 deg Amax % (IKZF3-GFP) [%]	DC50 (IKZF3-GFP) [nM]
COc1ccc(C(=O)N2CCC3(CCN(CCc4ccc(-c5cc6c(-c7cc(F)cc(NC(=O)N8C[C@H](CC(C)C)[C@@H](O)C8)c7C)ncnc6[nH]5)cc4)CC3)CC2)cc1N1CCC(=O)NC1=O [Compound 15, (3R,4S)—N-(3-(6-(4-(2-(9-(3-(2,4-Dioxotetrahydropyrimidin-1(2H)-yl)-4-methoxybenzoyl)-3,9-diazaspiro[5.5]undecan-3-yl)ethyl)phenyl)-7H-pyrrolo[2,3-d]pyrimidin-4-yl)-5-fluoro-2-methylphenyl)-3-hydroxy-4-isobutylpyrrolidine-1-carboxamide]	3.0	0.9	4	1.8	100.2	> 5500
COc1ccc(C(=O)N2CCC3(CCN(CCc4ccc(-c5cc6c(-c7cc(F)cc(NC(=O)N8C[C@@H](CC(C)C)[C@H](O)C8)c7C)ncnc6[nH]5)cc4)CC3)CC2)cc1N1CCC(=O)NC1=O [Compound 19, (3S,4R)—N-(3-(6-(4-(2-(9-(3-(2,4-dioxotetrahydropyrimidin-1(2H)-yl)-4-methoxybenzoyl)-3,9-diazaspiro[5.5]undecan-3-yl)ethyl)phenyl)-7H-pyrrolo[2,3-d]pyrimidin-4-yl)-5-fluoro-2-methylphenyl)-3-hydroxy-4-isobutylpyrrolidine-1-carboxamide]	2.9	16	13	85.5	102.4	> 1100
COc1ccc(C(=O)N2CCC(CCN3CCC(OCc4ccc(-c5cc6c(-c7cc(F)cc(NC(=O)N8C[C@H](CC(C)C)[C@@H](O)C8)c7C)ncnc6[nH]5)cc4)CC3)CC2)cc1N1CCC(=O)NC1=O [Compound 22, (3R,4S)—N-(3-(6-(4-(((1-(2-(1-(3-(2,4-Dioxotetrahydropyrimidin-1 (2H)-yl)-4-methoxybenzoyl)piperidin-4-yl)ethyl)piperidin-4-yl)oxy)methyl)phenyl)-7H-pyrrolo[2,3-d]pyrimidin-4-yl)-5-fluoro-2-methylphenyl)-3-hydroxy-4-isobutylpyrrolidine-1-carboxamide]	2.1	0.4	1.4	1.4	100.2	> 1100
